# Data as given in ChEMBL document CHEMBL5303573, “Mapping human microbiome drug metabolism by gut bacteria and their genes” (Nature, 2019).
# Assays:
# [1] = The drug is tested on Bacteroides cellulosilyticus strain: DSM14838 for biotransformation. The drug concentrations were measured before and after a 12-h incubation by liquid-chromatography-coupled mass spectrometry (LC–MS); conditions: 2 µM
# [2] = The drug is tested on Clostridium sporogenes strain: ATCC15579 for biotransformation. The drug concentrations were measured before and after a 12-h incubation by liquid-chromatography-coupled mass spectrometry (LC–MS); conditions: 2 µM
# [3] = parabacteroides johnsonii, 12 h, 2 µM
# Description: The drug is tested on Parabacteroides johnsonii strain: DSM18315 for biotransformation. The drug concentrations were measured before and after a 12-h incubation by liquid-chromatography-coupled mass spectrometry (LC–MS)
# [4] = The drug is tested on Collinsella aerofaciens strain: ATCC25986 for biotransformation. The drug concentrations were measured before and after a 12-h incubation by liquid-chromatography-coupled mass spectrometry (LC–MS); conditions: 2 µM
# [5] = bacteroides fragilis, 12 h, 2 µM
# Description: The drug is tested on Bacteroides fragilis strain: 3397 (T10) for biotransformation. The drug concentrations were measured before and after a 12-h incubation by liquid-chromatography-coupled mass spectrometry (LC–MS)
# [6] = The drug is tested on Bacteroides sp. WH2 strain: WH2 for biotransformation. The drug concentrations were measured before and after a 12-h incubation by liquid-chromatography-coupled mass spectrometry (LC–MS); conditions: bacteroides sp. wh2, 12 h, 2 µM
# [7] = The drug is tested on Collinsella intestinalis strain: DSM13280 for biotransformation. The drug concentrations were measured before and after a 12-h incubation by liquid-chromatography-coupled mass spectrometry (LC–MS); conditions: 2 µM
# [8] = The drug is tested on Dorea formicigenerans strain: ATCC27755 for biotransformation. The drug concentrations were measured before and after a 12-h incubation by liquid-chromatography-coupled mass spectrometry (LC–MS); conditions: 2 µM
# [9] = The drug is tested on Bacteroides coprophilus strain: DSM18228 for biotransformation. The drug concentrations were measured before and after a 12-h incubation by liquid-chromatography-coupled mass spectrometry (LC–MS); conditions: 2 µM
# [10] = The drug is tested on Odoribacter splanchnicus strain: fecal isolate for biotransformation. The drug concentrations were measured before and after a 12-h incubation by liquid-chromatography-coupled mass spectrometry (LC–MS); conditions: 2 µM
# [11] = The drug is tested on Providencia stuartii strain: ATCC25827 for biotransformation. The drug concentrations were measured before and after a 12-h incubation by liquid-chromatography-coupled mass spectrometry (LC–MS); conditions: 2 µM
# [12] = The drug is tested on Bacteroides ovatus strain: ATCC8483 for biotransformation. The drug concentrations were measured before and after a 12-h incubation by liquid-chromatography-coupled mass spectrometry (LC–MS); conditions: 2 µM
# [13] = The drug is tested on Bacteroides xylanisolvens strain: DSM18836 for biotransformation. The drug concentrations were measured before and after a 12-h incubation by liquid-chromatography-coupled mass spectrometry (LC–MS); conditions: 2 µM
# [14] = The drug is tested on Providencia rettgeri strain: DSM1131 for biotransformation. The drug concentrations were measured before and after a 12-h incubation by liquid-chromatography-coupled mass spectrometry (LC–MS); format: ADME; set-up: dose 2 uM, timepoint 0 vs 12 hours; conditions: 2 µM
# [15] = bacteroides thetaiotaomicron, 12 h, 2 µM
# Description: The drug is tested on Bacteroides thetaiotaomicron strain: VPI-5482 for biotransformation. The drug concentrations were measured before and after a 12-h incubation by liquid-chromatography-coupled mass spectrometry (LC–MS)
# [16] = akkermansia muciniphila, 12 h, 2 µM
# Description: The drug is tested on Akkermansia muciniphila strain: ATCC BAA-835 for biotransformation. The drug concentrations were measured before and after a 12-h incubation by liquid-chromatography-coupled mass spectrometry (LC–MS)
# [17] = bacteroides thetaiotaomicron, 12 h, 2 µM; remark: listed apart in the source
# Description: The drug is tested on Bacteroides thetaiotaomicron strain: 3731 for biotransformation. The drug concentrations were measured before and after a 12-h incubation by liquid-chromatography-coupled mass spectrometry (LC–MS)
# [18] = The drug is tested on Eubacterium rectale strain: ATCC33656 for biotransformation. The drug concentrations were measured before and after a 12-h incubation by liquid-chromatography-coupled mass spectrometry (LC–MS); conditions: agathobacter rectalis, 2 µM
# [19] = The drug is tested on Bacteroides fragilis strain: ATCC43859 for biotransformation. The drug concentrations were measured before and after a 12-h incubation by liquid-chromatography-coupled mass spectrometry (LC–MS); conditions: 2 µM
# [20] = The drug is tested on Bacteroides fragilis strain: HMW615 for biotransformation. The drug concentrations were measured before and after a 12-h incubation by liquid-chromatography-coupled mass spectrometry (LC–MS); conditions: 2 µM
SMILES,Bacterial Biotransformation [1],Bacterial Biotransformation [2],Bacterial Biotransformation [3],Bacterial Biotransformation [4],Bacterial Biotransformation [5],Bacterial Biotransformation [6],Bacterial Biotransformation [7],Bacterial Biotransformation [8],Bacterial Biotransformation [9],Bacterial Biotransformation [10],Bacterial Biotransformation [11],Bacterial Biotransformation [12],Bacterial Biotransformation [13],Bacterial Biotransformation [14],Bacterial Biotransformation [15],Bacterial Biotransformation [16],Bacterial Biotransformation [17],Bacterial Biotransformation [18],Bacterial Biotransformation [19],Bacterial Biotransformation [20]
CC(C)c1nc(CN(C)C(=O)N[C@H](C(=O)N[C@@H](Cc2ccccc2)C[C@H](O)[C@H](Cc2ccccc2)NC(=O)OCc2cncs2)C(C)C)cs1 [RITONAVIR],Compound NOT metabolized,Compound NOT metabolized,Compound NOT metabolized,Compound NOT metabolized,Compound NOT metabolized,Compound NOT metabolized,Compound NOT metabolized,Compound NOT metabolized,Compound NOT metabolized,Compound metabolized,Compound NOT metabolized,Compound NOT metabolized,Compound metabolized,Compound NOT metabolized,Compound NOT metabolized,Compound NOT metabolized,Compound NOT metabolized,,,
CCCc1nc2c(C)cc(-c3nc4ccccc4n3C)cc2n1Cc1ccc(-c2ccccc2C(=O)O)cc1,Compound metabolized,,,Compound NOT metabolized,,Compound metabolized,,Compound NOT metabolized,,Compound metabolized,Compound NOT metabolized,Compound metabolized,Compound metabolized,Compound NOT metabolized,,Compound NOT metabolized,,,,
CC(CN(C)C)CN1c2ccccc2CCc2ccccc21.O=C(O)/C=C\C(=O)O (configuration not stated) [TRIMIPRAMINE MALEATE],,Compound NOT metabolized,Compound NOT metabolized,Compound NOT metabolized,Compound NOT metabolized,Compound NOT metabolized,Compound NOT metabolized,Compound NOT metabolized,,Compound NOT metabolized,Compound NOT metabolized,Compound NOT metabolized,Compound NOT metabolized,Compound NOT metabolized,,Compound NOT metabolized,Compound NOT metabolized,Compound NOT metabolized,Compound NOT metabolized,Compound NOT metabolized
CCCCCCOC(=O)/N=C(/N)c1ccc(NCc2nc3cc(C(=O)N(CCC(=O)OCC)c4ccccn4)ccc3n2C)cc1.CS(=O)(=O)O [DABIGATRAN ETEXILATE MESYLATE],Compound NOT metabolized,Compound NOT metabolized,,Compound NOT metabolized,Compound NOT metabolized,Compound NOT metabolized,Compound NOT metabolized,Compound NOT metabolized,Compound NOT metabolized,Compound NOT metabolized,Compound NOT metabolized,Compound NOT metabolized,,Compound NOT metabolized,Compound NOT metabolized,Compound NOT metabolized,,Compound NOT metabolized,,
O=C(O)CCC(=O)O.O=C(O[C@H]1CN2CCC1CC2)N1CCc2ccccc2[C@@H]1c1ccccc1 [SOLIFENACIN SUCCINATE],,Compound NOT metabolized,Compound NOT metabolized,Compound NOT metabolized,Compound NOT metabolized,Compound NOT metabolized,Compound NOT metabolized,Compound NOT metabolized,Compound NOT metabolized,Compound NOT metabolized,Compound NOT metabolized,Compound NOT metabolized,,Compound NOT metabolized,,Compound NOT metabolized,Compound NOT metabolized,Compound NOT metabolized,Compound NOT metabolized,Compound NOT metabolized
CN(CCOc1ccc(CC2SC(=O)NC2=O)cc1)c1ccccn1.O=C(O)/C=C\C(=O)O (configuration not stated) [ROSIGLITAZONE MALEATE],Compound NOT metabolized,Compound NOT metabolized,Compound NOT metabolized,Compound NOT metabolized,Compound NOT metabolized,Compound NOT metabolized,Compound NOT metabolized,Compound NOT metabolized,Compound NOT metabolized,Compound NOT metabolized,Compound NOT metabolized,Compound NOT metabolized,Compound NOT metabolized,Compound NOT metabolized,Compound NOT metabolized,Compound NOT metabolized,Compound NOT metabolized,,,
COc1ccc(CN2CCNCC2)c(OC)c1OC.Cl.Cl [TRIMETAZIDINE DIHYDROCHLORIDE],Compound metabolized,Compound NOT metabolized,Compound metabolized,Compound NOT metabolized,Compound metabolized,Compound metabolized,Compound NOT metabolized,Compound NOT metabolized,Compound metabolized,,Compound NOT metabolized,Compound metabolized,Compound metabolized,Compound metabolized,Compound metabolized,Compound NOT metabolized,Compound metabolized,Compound NOT metabolized,,
CNNCc1ccc(C(=O)NC(C)C)cc1 [PROCARBAZINE],,Compound NOT metabolized,Compound metabolized,Compound NOT metabolized,Compound NOT metabolized,,Compound NOT metabolized,Compound NOT metabolized,Compound NOT metabolized,Compound NOT metabolized,Compound NOT metabolized,Compound NOT metabolized,Compound NOT metabolized,Compound NOT metabolized,Compound NOT metabolized,Compound NOT metabolized,Compound NOT metabolized,Compound NOT metabolized,Compound metabolized,Compound metabolized
COc1ccc(C(CN(C)C)C2(O)CCCCC2)cc1 (configuration not stated) [VENLAFAXINE],,Compound NOT metabolized,Compound NOT metabolized,Compound NOT metabolized,Compound NOT metabolized,Compound NOT metabolized,Compound NOT metabolized,Compound NOT metabolized,Compound NOT metabolized,Compound NOT metabolized,Compound NOT metabolized,Compound NOT metabolized,Compound NOT metabolized,Compound NOT metabolized,Compound NOT metabolized,Compound NOT metabolized,Compound NOT metabolized,Compound NOT metabolized,Compound NOT metabolized,Compound NOT metabolized
